Measurements published in paper PMC8355587, “The Potential of Lisosan G as a Possible Treatment for Glaucoma” (Frontiers in Pharmacology, 2021).
Like-named read-outs stand apart in the source and are kept apart here.

Key:
[1] = UHPLC-MS of LG components in the retina after LG gavage; type: in vivo, mouse; details: for retinal levels 24 h after LG administration: longest time period investigated; for AUC 0-24h in the retina / C max in the retina: *mg of retinal tissue (wet weight), n = 3; for Tmax: retina, 4.15 g LG/Kg of body weight
Method: For the analysis of different LG components reaching the retina after LG ingestion, a total of eighteen 6-mo-old D2 mice received an oral administration of LG solution by gavage. The retinas of three mice were dissected and quickly frozen in liquid nitrogen after 0 or 30 min and after 1, 2, 6, or 24 h. The retinas were stored at −80°C until used for mass spectrometry.
Assuming an average mouse body weight of 20 g, this dose corresponded to 4.15 g LG/Kg of body weight (human equivalent dose, 340 mg LG/Kg of body weight).
The main components of LG were determined in the LG powder (1 mg sample) using the same procedure as described below for the retinas. The most abundant were gallic acid, 4-hydroxybenzoic acid, quercetin, and nicotinamide (Table 2), therefore these metabolites were chosen as the LG components to be determined in the retina. To this aim, LG was administered to the mice by gavage and the retinas were dissected at different time points. The two retinas from each mouse were pooled together and they were resuspended in 0.2 ml of ice cold ultra-pure water (18 MΏ-cm) to lyse the cells. Three independent samples were analyzed for each time point. The tubes were plunged into dry ice or in a circulating bath at −25°C for 0.5 min and then into a water bath at 37°C for 0.5 min. Subsequently, 0.6 ml of −20°C methanol and then 0.4 ml of −20°C chloroform were added to each tube. The tubes were mixed every 5 min for 30 min, then they were centrifuged at 1000 × g for 1 min at 4°C, before being transferred to −20°C for 2–8 h. After centrifugation at 15,000 × g for 10 min at 4°C, the supernatants were collected and dried. Finally, the dried samples were resuspended in 0.1 ml of water and transferred to glass autosampler vials for LC-MS analysis. The supernatants were injected (20 μl) into a UHPLC system (Ultimate 3000; ThermoFisher Scientific, Waltham, MA, United States) and run in negative ion mode for determination of 4-hydroxy benzoic acid and in positive ion mode for the other. A ReproSil C18 column (2.0 mm × 150 mm, 2.5 μm; Dr Maisch, Ammerbuch-Entringen, Germany) was used for metabolite separation. […] For positive ion mode (+) MS analyses, a 0–100% linear gradient of solvent A (ddH2O, 0.1% formic acid) to B (acetonitrile, 0.1% formic acid) was employed over 20 min returning to 100% A in 3 min. For negative ion mode chromatographic separations A 0–100% linear gradient of solvent A (double-distilled 18 MΏ-cm water, […]) to B (100% acetonitrile, 10 mm ammonium acetate) was employed over 20 min, returning to 100% A in 3 min and a […] solvent A hold. The UHPLC system was coupled online with a mass spectrometer Q Exactive (ThermoFisher) scanning in full MS mode (2 μ scans) at 70,000 resolution in the 60–1000 m/z range. Data files were processed by MAVEN. 8.1 (http://genomics-pubs.princeton.edu/mzroll/) upon conversion of raw files into mzXML format through MassMatrix (Yellow Springs, OH, United States). Standard curves were obtained with several calibration points (2–0.00002 mg) of gallic acid, 4-hydroxybenzoic acid, quercetin, and nicotinamide analytical standards (Sigma Aldrich, St Louis, MO, United States).

[2] = set-up: method as in printed; details: general statement, no test and ref not given; cited from earlier work
[3] = D2 mice, LG by gavage 1 ml of 83 mg LG/ml (4.15 g LG/Kg)

Row | SMILES | T max in the retina ([1]; D2, mouse, in vivo, po) | retinal levels 24 h after LG administration [1] | solubility in water [2] | T max in the retina [1, 3] | AUC 0-24h in the retina [1, 3] | C max in the retina [1, 3] | Tmax ([1]; D2, mouse, po, after LG administration by gavage, read-out: time of maximum concentration in the retina) | time within which retinal levels decreased ([1]; after LG administration by gavage) | Tmax ([1]; mouse, po, D2 mice, LG by gavage 1 ml of 83 mg LG/ml (4.15 g LG/Kg), read-out: T max in the retina)
1 | O=C(O)c1cc(O)c(O)c(O)c1 [Gallic acid, gallic acid] | 30 min | still in the range of its maximum concentration | – | – | – | – | – | – | –
2 | O=C(O)c1ccc(O)cc1 [Hydroxy benzoic acid, 4-hydroxybenzoic acid] | – | – | only slightly soluble in water | 30 min | 958.500 ± 291.500 ng·h/mg | 444.250 ± 109.713 ng/mg | – | – | –
3 | NC(=O)c1cccnc1 [Nicotinamide, nicotinamide] | – | detectable, although low | – | – | 106.900 ± 52.210 ng·h/mg | 8.040 ± 1.274 ng/mg | 360 min | – | –
4 | O=c1c(O)c(-c2ccc(O)c(O)c2)oc2cc(O)cc(O)c12 [Quercetin, quercetin] | – | – | – | – | 0.263 ± 0.049 ng·h/mg | 0.061 ± 0.016 ng/mg | – | ≤ 2 h | 30 min
